Test results published in US10807992B2, “Single enantiomer antiparasitic compounds” (priority 2017, dated 2020).

System: Rhipicephalus sanguineus
Test: In vitro contact activity against adult ticks (coated vial), R. sanguineus
Details: for mortality at 0.006 µM: Trial 3, dose 0.006 μM; for mortality at 0.024 µM: Trial 3, dose 0.024 μM; for mortality at 0.098 µM: Trial 3, dose 0.098 μM; for mortality at 0.39 µM: Trial 3, dose 0.39 μM; for mortality at 1.56 µM: Trial 3, dose 1.56 μM; for mortality at 6.25 µM: Trial 3, dose 6.25 μM; for mortality at 25 µM: Trial 3, dose 25 μM; for mortality at 100 µM: Trial 3, dose 100 μM
Description: Rhipicephalus sanguineus, Dermacentor variabilis, Amblyomma americanum, (Ecto Services, Inc., Henderson, N.C.) and Ixodes scapularis (Oklahoma State University, Stillwater, Okla.) aged between 2-4 weeks post molt were held in an environmental chamber at 24° C., 80% humidity with 12-hour light/dark cycles.
For tick assays, vial caps were pre-drilled with a single hole in the center of each cap to allow air exchange. A filter paper (Whatman Grade 540 2.1 cm) was placed in the lid of each vial. An aliquot from each compound stock was added to an acetone/triton solution to achieve the desired top doses for the study. Serial dilutions were conducted from the top dose (i.e. 100 ppm) to achieve the desired titration range for EC50 and EC90 determination. For R. sanguineus, D. variabilis, and A. americanum, the final DMSO concentration in each test vial was 0.5%. For I. scapularis, compounds were solubilized directly in an acetone/triton solution due to I. scapularis' sensitivity to DMSO. A 459 μL aliquot of each compound formulation was transferred to a vial containing a Whatman Grade 540 2.1 cm filter paper. Vials were immediately placed on an unheated roller unit to allow for an even coating of the vial walls. After vials were coated, 41 μL of each compound formulation was added to the filter paper embedded in each vial cap. Each cap was allowed to dry. The vials were loosely capped and allowed to dry for a minimum of four hours in a chemical fume hood.
Compounds tested were: the C1 racemate, C1 (R) enantiomer, and the C1 (S) enantiomer. For Trial 3, the C1 (R) enantiomer and the C1 (S) enantiomer were further chiral purified to achieve >99% purity.
Ten adult ticks were added to each vial and held at 24° C., 80% humidity with 12-hour light/dark cycles. Adult ticks were assessed for percent mortality at various time points between 2 hours and 48 hours post infestation. Ticks were stimulated on a heated roller unit and evaluated. Ticks showing no movement, or very slow and uncoordinated movement were noted as dead.

O=C(CC(F)(F)F)N1CC2(C1)OCc1cc(C3=NSC(c4cc(Cl)c(F)c(Cl)c4)(C(F)(F)F)C3)ccc12 (racemic) [C1 racemate, 1-[6-[5-(3,5-dichloro-4-fluoro-phenyl)-5-(trifluoromethyl)-4H-isothiazol-3-yl]spiro[1H-isobenzofuran-3,3′-azetidine]-1′-yl]-3,3,3-trifluoro-propan-1-one]
10%: mortality at 25 µM (2 h, Rep2) | mortality at 100 µM (2 h, Rep1) | mortality at 0.39 µM (6 h, Rep1) | mortality at 0.39 µM (12 h, Rep1)
0%: mortality at 0.006 µM (2 h, Rep1) | mortality at 0.006 µM (2 h, Rep2) | mortality at 0.024 µM (2 h, Rep1) | mortality at 0.024 µM (2 h, Rep2) | mortality at 0.098 µM (2 h, Rep1) | mortality at 0.098 µM (2 h, Rep2) | mortality at 0.39 µM (2 h, Rep1) | mortality at 0.39 µM (2 h, Rep2) | mortality at 1.56 µM (2 h, Rep1) | mortality at 1.56 µM (2 h, Rep2) | mortality at 6.25 µM (2 h, Rep1) | mortality at 6.25 µM (2 h, Rep2) | mortality at 100 µM (2 h, Rep2) | mortality at 0.006 µM (6 h, Rep1) | mortality at 0.006 µM (6 h, Rep2) | mortality at 0.024 µM (6 h, Rep1) | mortality at 0.024 µM (6 h, Rep2) | mortality at 0.098 µM (6 h, Rep1) | mortality at 0.098 µM (6 h, Rep2) | mortality at 0.39 µM (6 h, Rep2) | mortality at 1.56 µM (6 h, Rep1) | mortality at 1.56 µM (6 h, Rep2) | mortality at 0.006 µM (12 h, Rep1) | mortality at 0.006 µM (12 h, Rep2) | mortality at 0.024 µM (12 h, Rep1) | mortality at 0.024 µM (12 h, Rep2) | mortality at 0.098 µM (12 h, Rep1) | mortality at 0.098 µM (12 h, Rep2) | mortality at 0.39 µM (12 h, Rep2)
90%: mortality at 25 µM (6 h, Rep1) | mortality at 1.56 µM (12 h, Rep1) | mortality at 25 µM (12 h, Rep1)
50%: mortality at 6.25 µM (6 h, Rep1) | mortality at 1.56 µM (12 h, Rep2)
100%: mortality at 25 µM (6 h, Rep2) | mortality at 100 µM (6 h, Rep1) | mortality at 100 µM (6 h, Rep2) | mortality at 25 µM (12 h, Rep2) | mortality at 100 µM (12 h, Rep1) | mortality at 100 µM (12 h, Rep2)
20%: mortality at 6.25 µM (6 h, Rep2)
80%: mortality at 6.25 µM (12 h, Rep1) | mortality at 6.25 µM (12 h, Rep2)
30%: mortality at 25 µM (2 h, Rep1)

O=C(CC(F)(F)F)N1CC2(C1)OCc1cc(C3=NS[C@](c4cc(Cl)c(F)c(Cl)c4)(C(F)(F)F)C3)ccc12 [C1 (R) enantiomer, (R)-1-[6-[5-(3,5-dichloro-4-fluoro-phenyl)-5-(trifluoromethyl)-4H-isothiazol-3-yl]spiro[1H-isobenzofuran-3,3′-azetidine]-1′-yl]-3,3,3-trifluoro-propan-1-one]
0%: mortality at 0.006 µM (2 h, Rep1) | mortality at 0.006 µM (2 h, Rep2) | mortality at 0.024 µM (2 h, Rep1) | mortality at 0.024 µM (2 h, Rep2) | mortality at 0.098 µM (2 h, Rep1) | mortality at 0.098 µM (2 h, Rep2) | mortality at 0.39 µM (2 h, Rep1) | mortality at 0.39 µM (2 h, Rep2) | mortality at 1.56 µM (2 h, Rep1) | mortality at 1.56 µM (2 h, Rep2) | mortality at 6.25 µM (2 h, Rep1) | mortality at 6.25 µM (2 h, Rep2) | mortality at 25 µM (2 h, Rep1) | mortality at 25 µM (2 h, Rep2) | mortality at 100 µM (2 h, Rep1) | mortality at 100 µM (2 h, Rep2) | mortality at 0.006 µM (6 h, Rep1) | mortality at 0.006 µM (6 h, Rep2) | mortality at 0.024 µM (6 h, Rep1) | mortality at 0.024 µM (6 h, Rep2) | mortality at 0.098 µM (6 h, Rep1) | mortality at 0.098 µM (6 h, Rep2) | mortality at 0.39 µM (6 h, Rep1) | mortality at 0.39 µM (6 h, Rep2) | mortality at 1.56 µM (6 h, Rep1) | mortality at 1.56 µM (6 h, Rep2) | mortality at 6.25 µM (6 h, Rep1) | mortality at 6.25 µM (6 h, Rep2) | mortality at 25 µM (6 h, Rep1) | mortality at 25 µM (6 h, Rep2) | mortality at 100 µM (6 h, Rep1) | mortality at 100 µM (6 h, Rep2) | mortality at 0.006 µM (12 h, Rep1) | mortality at 0.006 µM (12 h, Rep2) | mortality at 0.024 µM (12 h, Rep1) | mortality at 0.024 µM (12 h, Rep2) | mortality at 0.098 µM (12 h, Rep1) | mortality at 0.098 µM (12 h, Rep2) | mortality at 0.39 µM (12 h, Rep1) | mortality at 0.39 µM (12 h, Rep2) | mortality at 1.56 µM (12 h, Rep1) | mortality at 1.56 µM (12 h, Rep2) | mortality at 6.25 µM (12 h, Rep1) | mortality at 6.25 µM (12 h, Rep2) | mortality at 25 µM (12 h, Rep1) | mortality at 25 µM (12 h, Rep2) | mortality at 100 µM (12 h, Rep1) | mortality at 100 µM (12 h, Rep2)

O=C(CC(F)(F)F)N1CC2(C1)OCc1cc(C3=NS[C@@](c4cc(Cl)c(F)c(Cl)c4)(C(F)(F)F)C3)ccc12 [C1 (S) enantiomer, (S)-1-[6-[5-(3,5-dichloro-4-fluoro-phenyl)-5-(trifluoromethyl)-4H-isothiazol-3-yl]spiro[1H-isobenzofuran-3,3′-azetidine]-1′-yl]-3,3,3-trifluoro-propan-1-one]
10%: mortality at 100 µM (2 h, Rep2) | mortality at 1.56 µM (6 h, Rep1) | mortality at 0.39 µM (12 h, Rep1) | mortality at 0.39 µM (12 h, Rep2)
80%: mortality at 6.25 µM (6 h, Rep1)
40%: mortality at 1.56 µM (12 h, Rep1)
100%: mortality at 25 µM (6 h, Rep2) | mortality at 100 µM (6 h, Rep1) | mortality at 100 µM (6 h, Rep2) | mortality at 6.25 µM (12 h, Rep1) | mortality at 6.25 µM (12 h, Rep2) | mortality at 25 µM (12 h, Rep1) | mortality at 25 µM (12 h, Rep2) | mortality at 100 µM (12 h, Rep1) | mortality at 100 µM (12 h, Rep2)
60%: mortality at 6.25 µM (6 h, Rep2)
0%: mortality at 0.006 µM (2 h, Rep1) | mortality at 0.006 µM (2 h, Rep2) | mortality at 0.024 µM (2 h, Rep1) | mortality at 0.024 µM (2 h, Rep2) | mortality at 0.098 µM (2 h, Rep1) | mortality at 0.098 µM (2 h, Rep2) | mortality at 0.39 µM (2 h, Rep1) | mortality at 0.39 µM (2 h, Rep2) | mortality at 1.56 µM (2 h, Rep1) | mortality at 1.56 µM (2 h, Rep2) | mortality at 6.25 µM (2 h, Rep1) | mortality at 6.25 µM (2 h, Rep2) | mortality at 25 µM (2 h, Rep1) | mortality at 25 µM (2 h, Rep2) | mortality at 0.006 µM (6 h, Rep1) | mortality at 0.006 µM (6 h, Rep2) | mortality at 0.024 µM (6 h, Rep1) | mortality at 0.024 µM (6 h, Rep2) | mortality at 0.098 µM (6 h, Rep1) | mortality at 0.098 µM (6 h, Rep2) | mortality at 0.39 µM (6 h, Rep1) | mortality at 0.39 µM (6 h, Rep2) | mortality at 1.56 µM (6 h, Rep2) | mortality at 0.006 µM (12 h, Rep1) | mortality at 0.006 µM (12 h, Rep2) | mortality at 0.024 µM (12 h, Rep1) | mortality at 0.024 µM (12 h, Rep2) | mortality at 0.098 µM (12 h, Rep1) | mortality at 0.098 µM (12 h, Rep2)
50%: mortality at 100 µM (2 h, Rep1) | mortality at 1.56 µM (12 h, Rep2)
90%: mortality at 25 µM (6 h, Rep1)
